Measurements from US6673902B2, “Cyclin D binding factor, and uses thereof” (St. Jude Children's Research Hospital, priority 1996, dated 2004).

Experiments:
[1] = tested on: BS1-driven reporter; test: Transactivation of BS1-driven luciferase reporter in 293T cells; assay type: cell-based, human
From the text: (§1) An XbaI-EcoRV fragment containing the entire DMP1 coding sequence is subcloned by blunt end ligation into a SpeI-XbaI fragment of the Rc/RSV vector (Invitrogen, La Jolla Calif.) to enable DMP1 expression in mammalian cells. 6×concatamerized BS1, 8×concatamerized, BS2, or 7×concatamerized M3 oligonucleotides (FIG. 5B) are inserted into the XhoI-SmaI sites of pGL2 (Pfornega) 5′ to a minimal simian virus 40 (SV40) early promoter driving firefly luciferase gene expression. The latter “reporter” plasmid (1 μg) together with increasing amounts of pRc/RSV-DMP1 expression plasmid compensated by decreasing quantities of control pRc/RSV DNA (total of both=2.5 μg) were transfected into 293T cells (1.5×10^6 cells per 60 mm diameter culture dish) by calcium phosphate precipitation (7). Two days later, cells were harvested, washed three times with PBS, and lysed in 1 ml of 25 mM glycylglycine (Sigma), pH 7.8, 15 mM MgSO4, 4 mM EDTA, 1 mM DTT, and 1% Triton X-100. After clearing by centrifugation, 50 μl aliquots were assayed diluted to 350 μl using 15 mM potassium phosphate buffer, pH 7.8, containing 15 mM MgSO4, 4 mM EGTA, 2 mM ATP, 1 mM DTT, and 67 uM luciferin (Sigma). Total light emission was measured for duplicate samples during the initial 20 seconds after luciferin injection with an Optocomp I luminometer (MGM Instruments, Hamden Conn.). […]

[2] = tested on: BS2-driven reporter plasmid; test: Transactivation of BS2-driven luciferase reporter in 293T cells; assay type: cell-based, human; conditions: 1 μg BS2-driven reporter
From the text: as §1

[3] = target: T1, recombinant DMP1 (Mus musculus, UniProt Q8CE22); test: EMSA competition, recombinant DMP1 and 281 base pair ARF promoter fragment; assay type: binding; conditions: 200-fold excess of unlabelled oligonucleotide
T1 construct: made in house; host or cells: Sf9 insect cells, pAcYM1 baculovirus vector; used as crude lysate (~4 ng DMP1 per reaction)
T1 sequence (Q8CE22 1-761): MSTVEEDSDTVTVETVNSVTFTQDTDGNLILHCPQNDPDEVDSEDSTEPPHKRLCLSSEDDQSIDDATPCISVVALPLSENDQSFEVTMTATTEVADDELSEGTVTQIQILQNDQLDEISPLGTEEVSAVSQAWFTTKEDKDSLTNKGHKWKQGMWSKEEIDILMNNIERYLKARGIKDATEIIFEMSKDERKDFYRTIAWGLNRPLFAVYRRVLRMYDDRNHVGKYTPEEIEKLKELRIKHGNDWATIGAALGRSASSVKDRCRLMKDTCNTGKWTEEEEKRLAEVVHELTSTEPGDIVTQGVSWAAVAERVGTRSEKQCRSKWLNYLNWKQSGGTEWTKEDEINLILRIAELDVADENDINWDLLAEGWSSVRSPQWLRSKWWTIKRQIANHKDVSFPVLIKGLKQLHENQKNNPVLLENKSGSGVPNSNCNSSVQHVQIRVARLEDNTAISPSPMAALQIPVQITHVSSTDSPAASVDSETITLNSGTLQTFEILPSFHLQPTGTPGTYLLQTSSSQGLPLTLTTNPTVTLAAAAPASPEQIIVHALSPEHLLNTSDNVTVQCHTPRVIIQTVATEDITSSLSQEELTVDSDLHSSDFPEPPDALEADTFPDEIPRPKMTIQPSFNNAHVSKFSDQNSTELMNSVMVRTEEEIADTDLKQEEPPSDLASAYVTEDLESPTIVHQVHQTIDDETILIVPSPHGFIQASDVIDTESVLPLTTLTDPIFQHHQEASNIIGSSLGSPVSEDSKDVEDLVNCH
Procedure: Electrophoretic mobility shift assay (EMSA). Recombinant DMP1 protein was prepared in Sf9 cells [Hirai and Sherr, Mol. Cell. Biol. 16:6457-6467 (1996)]. Purified bacterial proteins representing the Ets1 DNA binding domain or full-length Ets1 [Inoue, et al., J. Biol. Chem. 273:29188-29194 (1998)] were used. EMSAs were performed [Inoue and Sherr, Mol. Cell. Biol. 18:1590-1600 (1998)] using either a 281-bp genomic fragment (−225 to +56) or double-stranded oligonucleotides containing the DMP1/Ets site obtained by annealing oligonucleotide 5′-[…]-3′ (sense strand SEQ ID NO:41); DMP1/Ets consensus sequence underlined) with a complementary antisense strand. For competition experiments, a 200-fold excess of unlabelled oligonucleotides was added to reaction mixtures before the probe. To verify the identity of the proteins in shifted complexes, reaction mixtures were incubated with control nonimmune rabbit serum (NRS), serum AF [Hirai and Sherr, Mol. Cell. Biol. 16:6457-6467 (1996)] and M-10 (both to DMP1 carboxylterminal epitopes), S-19 (DMP1 N-terminus), or C-20 (Ets1 C-terminus) before electrophoresis. M-10, S-19, and C-20 were from Santa Cruz Biotechnology.
The nucleotide sequence of the proximal promoter region of the murine ARF gene relative to the transcription initiation site as defined by S1 mapping analysis was determined (FIG. 13). […]

competition for DMP1 binding to the 281 base pair ARF promoter fragment [3] | Substance | activation of the BS1-driven reporter [1] [fold] | transactivation of luciferase activity relative to reporter plasmid alone [2] [fold]
– | DMP1: murine cyclin D-associated myb-like transcription factor, 761 amino acids, SEQ ID NO:1 | 7 | ~20
did not compete | M3: DMP1 deletion mutant (NcoI), amino acids 1-458 of SEQ ID NO:1 | – | –
